Here are results for nine compounds from US12180193B2, “Accelerating fibrosarcoma protein degrading compounds and associated methods of use” (Arvinas Operations, Inc., priority 2020, dated 2024).

One assay has as its target T1, BRAF V600E (Homo sapiens, UniProt P15056, V600E).
T1 construct: expressed in transfected cells
The assay can be described thus: Cellular assay of target protein degradation, T-Rex 293 cells stably transfected with HA-BRAF_V600E (HA immunofluorescence, high content imaging). Type of assay: cell-based. The settings on record: T-Rex 293 HA-BRAF V600E; for DC50: half maximal degradation, read-out: BRaf V600E DC50; for Dmax: maximum degradation observed. The method, then:
Protocol for a cellular assay of target protein degradation (T-Rex 293 cells). T-Rex 293 cells were purchased from Invitrogen (#R71007), and stably transfected with a pcDNA4/TO_HA-BRAF_V600E construct, using 400 ug Zeocin for selection. V600e cells are plated in Dulbecco's Modified Eagle Medium (DMEM; Gibco #11965118) containing 10% fetal bovine serum (FBS; Gibco #16000044) and 1 ng/mL doxycycline (Selleckchem #4163) at a density of 5,000 cells/well in 50 μl on poly-D-lysine (PDL) coated, black clear bottom 96-well plates (Corning #354640) and incubated for 24 hours at 37° C. with 5% C02. The following day 50 ul of tested compound was added at 2x concentration in DMEM with a final concentration ranging from 1 μM to 0.1 nM in 0.1% dimethylsulfoxide (DMSO), and incubated for 24 hours at 37° C. with 5% CO2. At the end of the experimental treatment, the media was flicked off and cells washed once with phosphate-buffered saline (PBS)++ (PBS with CaCl and MgCl) and gently replacing with 200 μl PBS++ per well. The PBS++ was removed and 50 uL 4% paraformaldehyde (PFA; EMS #15710) in PBS++ was added, and incubate at room temperature for 15 minutes. Cells were washed once with PBS++ and 50 uL 0.1% Triton X-100 (Fisher #BP151-500) in PBS++ was added. Plate was incubate for 5 minutes at room temperature. Cells were was once with PBS++. Cells were blocked with 100 uL Licor blocking buffer (Licor #927-50000) for 1 hour at room temperature. Next, 50 uL of HA antibody (CST #3724) at 1:1000 in Licor blocking buffer was added, and the plate incubate overnight at 4° C. The plates were parafilmed to prevent evaporation. Plate was washed three times with 200 uL PBS++. Fifty microliters of HCS secondary antibody solution [1:1000 Hoechst (Invitrogen #H3570), 1:1000 phalloidin (Invitrogen #A22287) and 1:5000 Alexa fluor (Invitrogen #A11008)] was added and incubated for 1 hour. Plate was wash three times with 200 uL PBS++, and imaged on a high content reader (ImageXpress Micro XLS, Molecular Devices).
(§1) The concentration of exemplary compound that leads to half maximal degradation (DC50) as well as the maximum degradation observed (Dmax, conventionally expressed as a percentage of control), which are below in Table 2 for the exemplary compounds of Table 1.

The target of the next assay is T2, BRAF G466V (Homo sapiens, UniProt P15056, G466V).
T2 construct: expressed in transfected cells
Put plainly: Cellular assay of target protein degradation, T-Rex 293 cells stably transfected with HA-BRAF G466V (HA immunofluorescence, high content imaging). Type of assay: cell-based. To be noted: T-Rex 293 HA-BRAF G466V; for DC50: half maximal degradation, read-out: BRaf G466V DC50; for Dmax: maximum degradation observed. On the procedure:
Protocol for a cellular assay of target protein degradation (T-Rex 293 cells). T-Rex 293 cells were purchased from Invitrogen (#R71007), and stably transfected with a pcDNA4/TO_HA-BRAF G466V construct, using 400 ug Zeocin for selection. G466V cells are plated in Dulbecco's Modified Eagle Medium (DMEM; Gibco #11965118) containing 10% fetal bovine serum (FBS; Gibco #16000044) and 0.75 ng/mL doxycycline (Selleckchem #4163) at a density of 5,000 cells/well in 50 μl on poly-D-lysine (PDL) coated, black clear bottom 96-well plates (Corning #354640) and incubated for 24 hours at 37° C. with 5% CO2. The following day 50 ul of tested compound was added at 2x concentration in DMEM with a final concentration ranging from 30 nM to 3 pM in 0.1% dimethylsulfoxide (DMSO), and incubated for 24 hours at 37° C. with 5% CO2. At the end of the experimental treatment, the media was flicked off and cells washed once with phosphate-buffered saline (PBS)++ (PBS with CaCl and MgCl) and gently replacing with 200 μl PBS++ per well. The PBS++ was removed and 50 uL 4% paraformaldehyde (PFA; EMS #15710) in PBS++ was added, and incubate at room temperature for 15 minutes. Cells were washed once with PBS++ and 50 uL 0.1% Triton X-100 (Fisher #BP151-500) in PBS++ was added. Plate was incubate for 5 minutes at room temperature. Cells were was once with PBS++. Cells were blocked with 100 uL Licor blocking buffer (Licor #927-50000) for 1 hour at room temperature. Next, 50 uL of HA antibody (CST #3724) at 1:1000 in Licor blocking buffer was added, and the plate incubate overnight at 4° C. The plates were parafilmed to prevent evaporation. Plate was washed three times with 200 uL PBS++. Fifty microliters of HCS secondary antibody solution [1:1000 Hoechst (Invitrogen #H3570), 1:1000 phalloidin (Invitrogen #A22287) and 1:5000 Alexa fluor (Invitrogen #A11008)] was added and incubated for 1 hour. Plate was wash three times with 200 uL PBS++, and imaged on a high content reader (ImageXpress Micro XLS, Molecular Devices).
as §1

Molecules are shown by their SMILES.

T2 sequence (P15056 whole entry G466V): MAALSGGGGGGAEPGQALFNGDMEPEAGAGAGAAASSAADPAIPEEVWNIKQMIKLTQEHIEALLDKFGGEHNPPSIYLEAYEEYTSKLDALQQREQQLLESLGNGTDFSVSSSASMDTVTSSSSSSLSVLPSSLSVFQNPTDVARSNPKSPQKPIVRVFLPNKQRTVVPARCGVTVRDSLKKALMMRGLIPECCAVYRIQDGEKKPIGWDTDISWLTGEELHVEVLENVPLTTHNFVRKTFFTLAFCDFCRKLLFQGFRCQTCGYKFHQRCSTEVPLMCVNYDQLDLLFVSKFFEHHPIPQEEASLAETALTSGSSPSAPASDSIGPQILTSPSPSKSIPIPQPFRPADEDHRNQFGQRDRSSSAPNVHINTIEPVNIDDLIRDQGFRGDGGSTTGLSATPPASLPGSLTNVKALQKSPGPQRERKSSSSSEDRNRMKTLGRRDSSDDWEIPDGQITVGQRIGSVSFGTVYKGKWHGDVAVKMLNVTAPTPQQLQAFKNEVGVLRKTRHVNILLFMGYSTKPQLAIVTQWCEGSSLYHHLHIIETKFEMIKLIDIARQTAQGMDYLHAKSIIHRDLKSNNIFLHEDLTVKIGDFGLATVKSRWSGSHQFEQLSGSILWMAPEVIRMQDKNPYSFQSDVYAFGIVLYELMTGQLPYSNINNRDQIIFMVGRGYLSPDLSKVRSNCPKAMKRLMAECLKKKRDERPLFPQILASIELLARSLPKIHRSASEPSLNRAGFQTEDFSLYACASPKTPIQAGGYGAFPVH
T1 sequence (P15056 whole entry V600E): as the sequence (P15056 whole entry G466V) above, with V466G, V600E counted along it

The DC50 is the midpoint of the concentration-degradation curve. The Dmax is the greatest extent of degradation seen. The low end stands for shallow degradation, the high end for deep degradation. For the compound `COc1cc([C@@H](O)CCN2CCN(c3ccc(-c4cnc5[nH]cc(C(=O)c6c(F)ccc(NS(=O)(=O)N7CC[C@@H](F)C7)c6F)c5c4)cc3)CC2)cc2c1C(=O)N([C@H]1CCC(=O)NC1=O)C2` (stereo in doubt) [Compound 295, (3R)-N-{3-[5-(4-{4-[(3S)-3-{2-[(3S)-2,6-dioxopiperidin-3-yl]-7-methoxy-1-oxo-2,3-dihydro-1H-isoindol-5-yl}-3-hydroxypropyl]piperazin-1-yl}phenyl)-1-pyrrolo[2,3-b]pyridine-3-carbonyl]-2,4-difluorophenyl}-3-fluoropyrrolidine-1-sulfonamide], at BRAF V600E, the half-maximal degradation concentration (DC50) lay in the range of 50 to 500 nM and the Dmax was in the range of 35 to 70%. On BRAF G466V, the DC50 was 1 to 10 nM and the Dmax is 35 to 70%.
As to `O=C1CCC(N2Cc3cc(N4CC5(CC(Oc6ccc(-c7cnc8[nH]cc(C(=O)c9c(F)ccc(NS(=O)(=O)N%10CC[C@@H](F)C%10)c9F)c8c7)cc6)C5)C4)ccc3C2=O)C(=O)N1` (stereo partly drawn) [Compound 1, (3R)-N-(3-{5-[4-({2-[2-(2,6-dioxopiperidin-3-yl)-1-oxo-2,3-dihydro-1H-isoindol-5-yl]-2-azaspiro[3.3]heptan-6-yl}oxy)phenyl]-1H-pyrrolo[2,3-b]pyridine-3-carbonyl}-2,4-difluorophenyl)-3-fluoropyrrolidine-1-sulfonamide], on BRAF V600E, the 50% degradation concentration (DC50) was 5 to 50 nM and the maximal degradation (Dmax) lay within 35 to 70%. Besides, on BRAF G466V, the DC50 lay within 1 to 10 nM and the Dmax lay within 35 to 70%.
`C[C@@]12CN(CC3CCN(c4ccc5c(c4)CN(C4CCC(=O)NC4=O)C5=O)CC3)C[C@]1(C)CN(c1ccc(-c3cnc4[nH]cc(C(=O)c5c(F)ccc(NS(=O)(=O)N6CC[C@@H](F)C6)c5F)c4c3)cc1)C2` (stereo partly drawn) [Compound 2, (3R)-N-[3-(5-{4-[(3aR,6aS)-5-({1-[2-(2,6-dioxopiperidin-3-yl)-1-oxo-2,3-dihydro-1H-isoindol-5-yl]piperidin-4-yl}methyl)-3a,6a-dimethyl-octahydropyrrolo[3,4-c]pyrrol-2-yl]phenyl}-1H-pyrrolo[2,3-b]pyridine-3-carbonyl)-2,4-difluorophenyl]-3-fluoropyrrolidine-1-sulfonamide]: on BRAF V600E, the DC50 was 5 to 50 nM and the Dmax lay in the range of 35 to 70%. Besides, on BRAF G466V, the DC50 is 10 to 30 nM and the Dmax fell in the range of 35 to 70%.
On to `O=C1CCC(N2Cc3cc(N4CCC(CN5C[C@H]6CCN(c7ccc(-c8cnc9[nH]cc(C(=O)c%10c(F)ccc(NS(=O)(=O)N%11CC[C@@H](F)C%11)c%10F)c9c8)cc7)C[C@H]6C5)CC4)ccc3C2=O)C(=O)N1` (stereo partly drawn) [Compound 3, (3R)-N-[3-(5-{4-[(3aR,7aS)-2-({1-[2-(2,6-dioxopiperidin-3-yl)-1-oxo-2,3-dihydro-1H-isoindol-5-yl)piperidin-4-yl}methyl)-octahydro-1H-pyrrolo[3,4-c]pyridin-5-yl]phenyl}-1H-pyrrolo[2,3-b]pyridine-3-carbonyl)-2,4-difluorophenyl]-3-fluoropyrrolidine-1-sulfonamide], for which, at BRAF V600E, the DC50 was 5 to 50 nM and the maximal degradation (Dmax) is 35 to 70%. On BRAF G466V, the half-maximal degradation concentration (DC50) lay in the range of 1 to 10 nM and the maximal degradation (Dmax) was above 70%.
In the case of `O=C1CCC(N2Cc3cc(N4CC5(CCN(CC#Cc6ccc(-c7cnc8[nH]cc(C(=O)c9c(F)ccc(NS(=O)(=O)N%10CC[C@@H](F)C%10)c9F)c8c7)cc6)C5)C4)ccc3C2=O)C(=O)N1` (stereo partly drawn) [Compound 4, (3R)-N-(3-{5-[4-(3-{2-[2-(2,6-dioxopiperidin-3-yl)-1-oxo-2,3-dihydro-1H-isoindol-5-yl]-2,6-diazaspiro[3.4]octan-6-yl}prop-1-yn-1-yl)phenyl]-1H-pyrrolo [2,3-b]pyridine-3-carbonyl}-2,4-difluorophenyl)-3-fluoropyrrolidine-1-sulfonamide], on BRAF V600E, the 50% degradation concentration (DC50) fell in the range of 50 to 500 nM and the Dmax is below 35%. At BRAF G466V, the DC50 lay in the range of 1 to 10 nM and the maximal degradation (Dmax) is 35 to 70%.
Take `O=C1CCC(N2Cc3cc(N4CC(N5C[C@H]6C[C@@H]5CN6c5ccc(-c6cnc7[nH]cc(C(=O)c8c(F)ccc(NS(=O)(=O)N9CC[C@@H](F)C9)c8F)c7c6)cc5)C4)ccc3C2=O)C(=O)N1` (stereo partly drawn) [Compound 5, (3R)-N-[3-(5-{4-[(1R,4R)-5-{1-[2-(2,6-dioxopiperidin-3-yl)-1-oxo-2,3-dihydro-1H-isoindol-5-yl]azetidin-3-yl}-2,5-diazabicyclo[2.2.1]heptan-2-yl]phenyl}-1H-pyrrolo[2,3-b]pyridine-3-carbonyl)-2,4-difluorophenyl]-3-fluoropyrrolidine-1-sulfonamide]: the half-maximal degradation concentration (DC50) at BRAF V600E was above 500 nM. Also, on BRAF G466V, the DC50 was 1 to 10 nM and the Dmax fell in the range of 35 to 70%.
In the case of `COc1cc(N2CCC(CN3CCC4(CC3)CCN(c3ccc(-c5cnc6[nH]cc(C(=O)c7c(F)ccc(NS(=O)(=O)N8CC[C@@H](F)C8)c7F)c6c5)cc3)CC4)CC2)cc2c1C(=O)N(C1CCC(=O)NC1=O)C2` (stereo partly drawn) [Compound 6, (3R)-N-[3-(5-{4-[9-({1-[2-(2,6-dioxopiperidin-3-yl)-7-methoxy-1-oxo-2,3-dihydro-1H-isoindol-5-yl]piperidin-4-yl}methyl)-3,9-diazaspiro[5.5]undecan-3-yl]phenyl}-1H-pyrrolo[2,3-b]pyridine-3-carbonyl)-2,4-difluorophenyl]-3-fluoropyrrolidine-1-sulfonamide], the DC50 on BRAF V600E is below 5 nM; at BRAF G466V it was 1 to 10 nM. Further, the Dmax on BRAF V600E and on BRAF G466V was 35 to 70% each time.
For the compound `O=C1CCC(N2Cc3cc(N4CC(CN5CCC(c6ccc(-c7cnc8[nH]cc(C(=O)c9c(F)ccc(NS(=O)(=O)N%10CC[C@@H](F)C%10)c9F)c8c7)cc6)CC5)C4)ccc3C2=O)C(=O)N1` (stereo partly drawn) [Compound 7, (3R)-N-[3-(5-{4-[1-({1-[2-(2,6-dioxopiperidin-3-yl)-1-oxo-2,3-dihydro-1H-isoindol-5-yl]azetidin-3-yl}methyl)piperidin-4-yl]phenyl}-1H-pyrrolo[2,3-b]pyridine-3-carbonyl)-2,4-difluorophenyl]-3-fluoropyrrolidine-1-sulfonamide], the 50% degradation concentration (DC50) at BRAF V600E was in the range of 5 to 50 nM; on BRAF G466V, 1 to 10 nM. Further, the figures for the Dmax on BRAF V600E and on BRAF G466V were 35 to 70% and above 70%, respectively.
Take `O=C1CCC(N2Cc3cc(N4CCC(CN5CCC6(CCN(c7ncc(-c8cnc9[nH]cc(C(=O)c%10c(F)ccc(NS(=O)(=O)N%11CC[C@@H](F)C%11)c%10F)c9c8)cn7)CC6)C5)CC4)ccc3C2=O)C(=O)N1` (stereo partly drawn) [Compound 96, (3R)-N-[3-(5-{2-[2-({1-[2-(2,6-dioxopiperidin-3-yl)-1-oxo-2,3-dihydro-1H-isoindol-5-yl]piperidin-4-yl}methyl)-2,8-diazaspiro[4.5]decan-8-yl]pyrimidin-5-yl}-1H-pyrrolo[2,3-b]pyridine-3-carbonyl)-2,4-difluorophenyl]-3-fluoropyrrolidine-1-sulfonamide]: at BRAF V600E, the DC50 is below 5 nM and the greatest degradation seen (Dmax) is below 35%.
